Literature values in publication PMC4691889 (Genes & Development, 2015).

Test system: NTMT1
Conditions: inhibition of NTMT1, determined in previous studies; ref Richardson et al. 2015

IC50: 3.3 µM
SMILES: Nc1ncnc2c1ncn2[C@@H]1O[C@H](CSCC[C@H](N)C(=O)O)[C@@H](O)[C@H]1O [SAH, S-adenosyl-L-homocysteine]
